Assay results reported in patent US20110212186A1, “COMPOSITION FOR TREATING AUTOIMMUNE DISORDERS” (priority 2008, published 2011).

Experiments:
[1] = tested on: Bovine articular cartilage explants; experiment: Extracted cartilage protein content, bovine explants; assay type: cell-based; details: combination experiment
Protocol: The cartilage was extracted to determine the cartilage content of various proteins, in comparison of that secreted to the medium.
Cartilage explants were frozen in liquid nitrogen. The frozen explants were pulverized using Bessman Tissue Pulverizer according to the instructions supplied by the manufacturer. The powder was placed in 14 ml tube using frozen scalpel. Ice-cold Digestive Buffer (50 mM Tris.HCL buffer, pH 7.4 containing 0.1M NaCL and 0.1% Triton X-100) was added and the solution homogenized for 30 sec using Polytron PT-MR 3000 homogenizer (Brinkmann, Littau-Switzerland).The homogenate was then centrifuged at 15,000 rpm for 20 min and the supernatant collected and stored at −80° C. until further analysis.

[2] = tested on: Bovine articular cartilage explants; experiment: Chondroitin sulphate (sGAG) release from bovine cartilage explants, anabolic conditions; assay type: cell-based; details: for accumulative chondroitin sulphate release day 17-24: combination experiment, IGF-1 100 ng/ml; for effect on accumulated chondroitin sulphate release day 10-23: Oligomin 200 and 400 μg/ml, glucosamine 400 μg/ml, T-ChOS 50-400 μg/ml, A 200 and 400 μg/ml
Protocol: (§1) For cartilage explant experiments, aminosugar concentrations tested were as follows. Oligomin and T-ChOS, 50, 100, 200 and 400 μg/ml in the media. N-acetyl glucosamine (A) and glucosamine (D), 200 and 400 μg/ml in the media. A+D combination were 200 μg/ml each in the media.
(§2) Bovine articular cartilage explants cultures are used as a model for cartilage degenerative diseases that enables experiments in a robust and simple test-model/assay, where the effect of growth factors and drugs on cartilage metabolism can be investigated [ Olsen, A.K., et al., Anabolic and catabolic function of chondrocyte ex vivo is reflected by the metabolic processing of type II collagen. Osteoarthritis and Cartilage, 2007, 15(3): p. 335-342.].
(§3) The knees were opened under semi-sterile conditions in a LAF bench. Cuts of surface articular cartilage were removed in a one-movement-maneuver, removing only the outermost layer. Too deep cuts will contain underlying subchondral bone /chondrosteous material. Uniform explants were harvested from both femur and tibia. Explants from the cartilage situated at the chondyles were avoided. The explants were transferred into a Petri-dish containing PBS+pen/strep (penincillin/streptomycin).
(§4) The explants were individually weighed and transferred into a sterile 96 well plate under semi-sterile conditions in a flow-bench. Prior, the wells were filled with 200 μL PBS+pen/strep, to keep the explants wet after weighing. Then PBS was removed, and medium containing different types and concentration of aminosugars were applied to the wells, 200 μL/well, according to the set-up. Four explant replicates were used for each test. The plates were incubated at 37° C. and 5% CO2 with shaking 50 rpm. The plates were covered in a CO2 permeable plastic bag to limit/avoid contamination from spores. The conditioning medium was replaced every 2nd - 3rd day, and the supernatant was transferred into a new 96 wells plate and stored at −20° C. until end of experiment. Fresh medium different types and concentration of aminosugars were applied to the wells, 200 μL/well, according to the setup every 2nd- 3rd day.
For detection of sulfated glycosaminoglycans (sGAG) that is chondroitin sulphate release, the quantitative dye-binding assay for in vitro analysis of GAG release was used according to the manufacturer's instructions (Wieslab, S).

[3] = tested on: Bovine articular cartilage explants; experiment: Collagen type II formation (PIINP ELISA) in bovine cartilage explants; assay type: cell-based; details: for effect on PIINP, day 22: Oligomin and T-ChOS 50-400 μg/ml, A and D 200 and 400 μg/ml
Protocol: as §1, §2, §3
as §4, with “The conditioning medium was replaced every 2nd - 3rd day, and the supernatant was transferred into a new 96 wells plate and stored at −20° C. until end of experiment. Fresh medium different types and concentration of aminosugars were applied to the wells, 200 μL/well, according to the setup every 2nd- 3rd day.” left out
Supernatants were measured for type II collagen formation (PIINP), for aggrecanase-mediated aggrecan degradation. […]
Collagen type II formation is measured by a specific ELISA assay based on an antibody that recognizes an epitope on the PIINP molecule outside the exon 2 (PIIANP). […]

[4] = tested on: type II collagen arthritis in rats; experiment: Type II collagen induced rheumatoid arthritis rat model, oral dosing; assay type: in vivo
Protocol: Animals used were 10 per group for arthritis-Induced groups, 4/group for non-induced control group), housed 4-5/cage. For the arthritis induction, the animals were anesthetized with Isoflurane and given subcutaneous/intradermal (SC/ID) injections of 300 μl of Freund's Incomplete Adjuvant (Difco, Detroit, Mich.), containing 2 mg/ml bovine type II collagen (Elastin Products, Owensville, Mo.), at the base of the tail and 2 sites on the back on days 0 and 6. Dosing of the various oligomer and/or monomer compositions by oral route (QD at 24 hr intervals) was initiated on day 0 of the study and continued through day 16. Animals were terminated on study day 17. Efficacy evaluation was based on ankle caliper measurements, expressed as area under the curve (AUC), terminal hind paw weights, and histopathologic evaluation of ankles and knees. For statistical analysis various inflammation calculations were performed for the ankle diameter data, Anova and t-tests (parametrical or non-parametrical tests) were applied according to software guidelines ([…]). All animals survived to study termination.

[5] = tested on: human OA articular cartilage explants; experiment: Cell viability by Alamar Blue, human OA articular cartilage explants; assay type: cell-based; details: linear regression p<0.05
Protocol: To ensure the specific and non-toxic action of aminosugars, the metabolic activity of chondrocytes were measured by Alamar Blue, which previously has shown to correlate to cell number and cell viability. Cartilage explants were obtained from a knee of a person suffering from osteoarthritis. Explants were kept in growth media under anabolic conditions for 25 days. Fresh media was applied every 2-3 days. Aminosugars (Oligomin, T-ChOS, A and D; different concentration) were kept in media from day 0 to day 25.

[6] = tested on: human OA cartilage explant; experiment: Collagen type II formation (PIINP) in human OA cartilage explants; assay type: cell-based; details: different concentrations
Protocol: Collagen type II formation is measured by a specific ELISA assay based on an antibody that recognizes an epitope on the PIINP molecule outside the exon 2 (PIIANP). Therefore the EUSA is not specific for the HA or the IIB form but reacts with both forms. Cartilage explants were obtained from a knee of a person suffering from osteoarthritis. Explants were kept in growth media under anabolic conditions for 25 days. Fresh media was applied every 2-3 days. Aminosugars (Oligomin, T-ChOS, A and D; different concentration) were kept in media from day 0 to day 25.

YKL-40 = experiment: Extracellular YKL-40 release in human cartilage explant media; assay type: cell-based; details: 400 μg/ml
Protocol: Cartilage explants were obtained from a knee of a person suffering from osteoarthritis. Explants were kept in growth media under anabolic conditions for 25 days. Fresh media was applied every 2-3 days. Aminosugars (Oligomin, T-ChOS, A and D; different concentration) were kept in media from day 0 to day 25. Since YKL-40 is a proposed receptor for the T-ChOS, the extracellular YKL-40 release was analyzed in media at day 4, 11, 15, 20 and 25 in explants treated with 400 μg/ml of T-ChOS, Oligomin and glucosamine (D). […] For the control there was a significant drop in the YKL-40 expression between day 10 and 20. […] Glucosamine had no effect (FIG. 7). […] This relationship disappeared when the T-ChOS group was excluded from the data (no linear regression).

Compound	extracted cartilage protein assay at day 24 [1]	accumulative chondroitin sulphate release day 17-24 [2]	effect on accumulated chondroitin sulphate release day 10-23 [2]	effect on PIINP, day 22 [3]	Summed knee scores, non-significant increase vs disease controls ([4]; 21 mg/kg D alone)	Inhibition of summed ankle histopathology parameters ([4]; T-ChOS 7.1 mg/kg (Group 3), D 21.4 mg/kg (Group 4), T-ChOS 7.1 + D 21.4 mg/kg (Group 5))	overall benefit in the rat arthritis study (summary) ([4]; T-ChOS 7.1 mg/kg alone, D-glucosamine 21.4 mg/kg alone)	accumulative ankle diameter (day 9-17) ([4]; T-ChOS 7.1 mg/kg, D 21.4 mg/kg, combination T-ChOS 7.1 + D 21.4 mg/kg)	Cell-viability at day 25 (Alamar Blue), induction [5]	effect on PIINP expression day 18-25 [6]	effect on accumulated chondroitin sulphate release day 10-23 ([2]; listed as Glucosamine)	YKL-40 expression in media, late period (day 15-25) (YKL-40)	accumulated PIINP release (day 20 and day 24) ([3]; combination experiment, T-ChOS 50 and 400 μg/ml, T-ChOS 400 μg/ml + glucosamine 200 μg/ml, glucosamine 200 μg/ml, Oligomin 50-400 μg/ml)
IGF-1: Insulin-like Growth Factor-1, 100 ng/ml, positive anabolic stimulation control	did not reveal any significant effect	significant Increase	–	–	–	–	–	–	–	–	–	–	–
CC(=O)N[C@H]1C(O)O[C@H](CO)[C@@H](O)[C@@H]1O (stereo partly shown) [N-acetyl glucosamine]	–	–	no significant effect	no effect	–	–	–	–	–	–	–	–	–
N[C@H]1C(O)O[C@H](CO)[C@@H](O)[C@@H]1O (stereo partly shown) [glucosamine]	–	neither T-ChOS nor glucosamine alone did have any significant effect	significant reduction	no effect	14%	12%	no beneficial effect	no effect	least	no effect	same effect	no effect	no effect
